Test results published in BindingDB's records for doi:10.1021/jm990281p (Parke-Davis Pharmaceutical Research, 2000).

Columns and labels:
[1] = molecular target: T1, Dimer of Gag-Pol polyprotein [489-587] (Human immunodeficiency virus 1, UniProt P12497); experiment: Protease Inhibition Assay
T1 construct: 489-587
Method: (§1) Sensitivity of HIV-1 protease activity to protease inhibitors was determined by a peptide substrate cleavage assay. Protease products were analyzed on a reverse-phase high-pressure liquid chromatograph.

[2] = molecular target: T2, Gag-Pol polyprotein [489-587] (Human immunodeficiency virus 1, UniProt P04585); experiment: Protease Inhibition Assay
T2 construct: 489-587
Method: as §1

`Cc1cc(SC2C(=O)CC(CCc3ccc(O)cc3)(C(C)C)OC2=O)c(C(C)(C)C)cc1NS(C)(=O)=O` (stereo not given) was tested, and the IC50 ([1]; pH 6.2, 37 °C) was 4 nM and the IC50 [2] was 4 nM.

Work on `Cc1cc(SC2C(=O)CC(CCc3ccc(O)cc3)(C(C)C)OC2=O)c(C(C)(C)C)cc1NS(=O)(=O)c1ccc(Cl)cc1` (stereo not given) yielded an IC50 ([1]; pH 6.2, 37 °C) of 5.3 nM and an IC50 [2] of 5.3 nM.

In the case of `Cc1cc(SC2C(=O)CC(CCc3ccc(O)cc3)(C(C)C)OC2=O)c(C(C)(C)C)cc1NS(=O)(=O)c1cccnc1` (stereo not given), the IC50 ([1]; pH 6.2, 37 °C) is reported as 2.6 nM and the IC50 [2] is reported as 2.6 nM.

Compound `Cc1cc(SC2C(=O)CC(C)(CCc3ccc(O)cc3)OC2=O)c(C(C)(C)C)cc1NS(C)(=O)=O` (stereo not given) has an IC50 ([1]; pH 6.2, 37 °C) of 9.7 nM and an IC50 [2] of 9.7 nM.

`Cc1cc(SC2C(=O)CC(C)(CCc3ccc(O)cc3)OC2=O)c(C(C)(C)C)cc1NS(=O)(=O)c1ccc(C#N)cc1` (stereo not given) gave an IC50 ([1]; pH 6.2, 37 °C) of 2.1 nM and an IC50 [2] of 2.1 nM.

For `Cc1cc(SC2C(=O)CC(CCc3ccccc3)(C(C)C)OC2=O)c(C(C)(C)C)cc1N` (stereo not given), the IC50 ([1]; pH 6.2, 37 °C) was 3.6 nM and the IC50 [2] was 3.6 nM.

`Cc1cc(SC2C(=O)CC(CCc3ccccc3)(C(C)C)OC2=O)c(C(C)(C)C)cc1NS(=O)(=O)c1cccs1` (stereo not given) gave an IC50 ([1]; pH 6.2, 37 °C) of 3.6 nM and an IC50 [2] of 3.6 nM.

With `Cc1cc(SC2C(=O)CC(CCc3ccc(O)cc3)(C(C)C)OC2=O)c(C(C)(C)C)cc1OS(=O)(=O)c1ccc(F)cc1` (stereo not given) the IC50 [1] was 9.6 nM and the IC50 [2] was 9.6 nM.

For `Cc1cc(SC2C(=O)CC(CCc3ccc(O)cc3)(C(C)C)OC2=O)c(C(C)(C)C)cc1OS(=O)(=O)c1cccnc1` (stereo not given), the IC50 [1] was 3.5 nM and the IC50 [2] was 3.5 nM.

Compound `Cc1cc(SC2C(=O)CC(C)(CCc3ccc(O)cc3)OC2=O)c(C(C)(C)C)cc1OS(=O)(=O)c1ccccc1` (stereo not given) has an IC50 [1] of 9.8 nM and an IC50 [2] of 9.8 nM.

Work on `Cc1cc(SC2C(=O)CC(C)(CCc3ccc(O)cc3)OC2=O)c(C(C)(C)C)cc1OS(=O)(=O)c1ccc(F)cc1` (stereo not given) yielded an IC50 [1] of 16.9 nM and an IC50 [2] of 16.9 nM.

Compound `Cc1cc(SC2C(=O)CC(CCc3ccc(O)cc3)(C3CCCCC3)OC2=O)c(C(C)(C)C)cc1OS(=O)(=O)c1ccc(C#N)cc1` (stereo not given) has an IC50 [1] of 21 nM and an IC50 [2] of 21 nM.

Work on `Cc1cc(SC2C(=O)CC(CCc3ccc(O)cc3)(C3CCCCC3)OC2=O)c(C(C)(C)C)cc1OS(=O)(=O)c1ccc(F)cc1` (stereo not given) yielded an IC50 [1] of 29 nM and an IC50 [2] of 29 nM.

With `Cc1cc(SC2C(=O)CC(CCc3ccccc3)(C(C)C)OC2=O)c(C(C)(C)C)cc1OS(=O)(=O)c1cccnc1` (stereo not given) the IC50 [1] was 14 nM and the IC50 [2] was 14 nM.

Compound `Cc1cc(SC2C(=O)CC(CCc3ccc(N)cc3)(C(C)C)OC2=O)c(C(C)(C)C)cc1OS(=O)(=O)c1ccc(C#N)cc1` (stereo not given) has an IC50 [1] of 1.3 nM and an IC50 [2] of 1.3 nM.

Compound `CCNS(=O)(=O)Nc1cc(C(C)(C)C)c(SC2C(=O)CC(CCc3ccc(O)cc3)(C(C)C)OC2=O)cc1C` (stereo not given) has an IC50 [1] of 1.7 nM and an IC50 [2] of 1.7 nM.

Work on `CCNS(=O)(=O)Nc1cc(C(C)(C)C)c(SC2C(=O)CC(CCc3ccccc3)(C(C)C)OC2=O)cc1C` (stereo not given) yielded an IC50 [1] of 3.3 nM and an IC50 [2] of 3.3 nM.

`Cc1cc(SC2C(=O)CC(CCc3ccc(O)cc3)(C(C)C)OC2=O)c(C(C)(C)C)cc1NS(=O)(=O)N(C)C` (stereo not given) [3-({2-tert-butyl-4-[(dimethylsulfamoyl)amino]-5-methylphenyl}sulfanyl)-4-hydroxy-6-[2-(4-hydroxyphenyl)ethyl]-6-(propan-2-yl)-5,6-dihydro-2H-pyran-2-one] was tested, and the IC50 [1] was 3.6 nM and the IC50 [2] was 3.6 nM.

With `Cc1cc(SC2C(=O)CC(C)(CCc3ccc(O)cc3)OC2=O)c(C(C)(C)C)cc1N` (stereo not given) [3-[(4-amino-2-tert-butyl-5-methylphenyl)sulfanyl]-4-hydroxy-6-[2-(4-hydroxyphenyl)ethyl]-6-methyl-5,6-dihydro-2H-pyran-2-one] the IC50 ([1]; pH 6.2, 37 °C) was 13 nM and the IC50 [2] was 13 nM.

For `Cc1cc(SC2C(=O)CC(CCc3ccc(O)cc3)(C(C)C)OC2=O)c(C(C)(C)C)cc1OS(=O)(=O)c1ccc(C#N)cc1` (stereo not given) [5-tert-butyl-4-({4-hydroxy-6-[2-(4-hydroxyphenyl)ethyl]-2-oxo-6-(propan-2-yl)-5,6-dihydro-2H-pyran-3-yl}sulfanyl)-2-methylphenyl 4-cyanobenzene-1-sulfonate], the IC50 [1] was 4.5 nM and the IC50 [2] was 4.5 nM.
